Experiments:
M14 = assay: NCI in vitro DTP human cell line screen, M14; format: cell-based; settings: Melanoma, 1.00E−5 Molar
Description: (§1) Then, a cell toxicity assay of the cancer lines made by National Cancer Institute will be discussed as follows. The cell toxicity assay is performed by choosing ten compounds (existing certification numbers) from the 59 compounds disclosed in the present invention first.

HCT-116 = assay: NCI in vitro DTP human cell line screen, HCT-116; format: cell-based; settings: Colon Cancer, 1.00E−5 Molar
Description: as §1

SF-539 = assay: NCI in vitro DTP human cell line screen, SF-539; format: cell-based; settings: CNS Cancer, 1.00E−5 Molar
Description: as §1

SK-OV-3 = assay: NCI in vitro DTP human cell line screen, SK-OV-3; format: cell-based; settings: Ovarian Cancer, 1.00E−5 Molar
Description: as §1

MALME-3M = assay: NCI in vitro DTP human cell line screen, MALME-3M; format: cell-based; settings: Melanoma, 1.00E−5 Molar
Description: as §1

786-0 = assay: NCI in vitro DTP human cell line screen, 786-0; format: cell-based; settings: Renal Cancer, 1.00E−5 Molar
Description: as §1

NCI/ADR-RES = assay: NCI in vitro DTP human cell line screen, NCI/ADR-RES; format: cell-based; settings: Ovarian Cancer, 1.00E−5 Molar
Description: as §1

60 cancer lines = assay: NCI cell toxicity assay of 60 cancer lines, whole panel summary; format: cell-based, human; settings: mean over all cell lines; 1.00E−5 Molar
Description: as §1

SR = assay: NCI in vitro DTP human cell line screen, SR; format: cell-based; settings: Leukemia, 1.00E−5 Molar
Description: as §1

OVCAR-8 = assay: NCI in vitro DTP human cell line screen, OVCAR-8; format: cell-based; settings: Ovarian Cancer, 1.00E−5 Molar
Description: as §1

SF-268 = assay: NCI in vitro DTP human cell line screen, SF-268; format: cell-based; settings: CNS Cancer, 1.00E−5 Molar
Description: as §1

HS 578-T = assay: NCI in vitro DTP human cell line screen, HS 578-T; format: cell-based; settings: Breast Cancer, 1.00E−5 Molar
Description: as §1

COLO 205 = assay: NCI in vitro DTP human cell line screen, COLO 205; format: cell-based; settings: Colon Cancer, 1.00E−5 Molar
Description: as §1

NCI-H322M = assay: NCI in vitro DTP human cell line screen, NCI-H322M; format: cell-based; settings: Non-Small Cell Lung Cancer, 1.00E−5 Molar
Description: as §1

SNB-75 = assay: NCI in vitro DTP human cell line screen, SNB-75; format: cell-based; settings: CNS Cancer, 1.00E−5 Molar
Description: as §1

LOX IMVI = assay: NCI in vitro DTP human cell line screen, LOX IMVI; format: cell-based; settings: Melanoma, 1.00E−5 Molar
Description: as §1

SF-295 = assay: NCI in vitro DTP human cell line screen, SF-295; format: cell-based; settings: CNS Cancer, 1.00E−5 Molar
Description: as §1

ACHN = assay: NCI in vitro DTP human cell line screen, ACHN; format: cell-based; settings: Renal Cancer, 1.00E−5 Molar
Description: as §1

MDA-MB-468 = assay: NCI in vitro DTP human cell line screen, MDA-MB-468; format: cell-based; settings: Breast Cancer, 1.00E−5 Molar
Description: as §1

EKVX = assay: NCI in vitro DTP human cell line screen, EKVX; format: cell-based; settings: Non-Small Cell Lung Cancer, 1.00E−5 Molar
Description: as §1

MOLT-4 = assay: NCI in vitro DTP human cell line screen, MOLT-4; format: cell-based; settings: Leukemia, 1.00E−5 Molar
Description: as §1

OVCAR-5 = assay: NCI in vitro DTP human cell line screen, OVCAR-5; format: cell-based; settings: Ovarian Cancer, 1.00E−5 Molar
Description: as §1

KM12 = assay: NCI in vitro DTP human cell line screen, KM12; format: cell-based; settings: Colon Cancer, 1.00E−5 Molar
Description: as §1

PC-3 = assay: NCI in vitro DTP human cell line screen, PC-3; format: cell-based; settings: Prostate Cancer, 1.00E−5 Molar
Description: as §1

SK-MEL-2 = assay: NCI in vitro DTP human cell line screen, SK-MEL-2; format: cell-based; settings: Melanoma, 1.00E−5 Molar
Description: as §1

HL-60(TB) = assay: NCI in vitro DTP human cell line screen, HL-60(TB); format: cell-based; settings: Leukemia, 1.00E−5 Molar
Description: as §1

SW-620 = assay: NCI in vitro DTP human cell line screen, SW-620; format: cell-based; settings: Colon Cancer, 1.00E−5 Molar
Description: as §1

[1] = MTT assay, HEL299 fibroblast; format: cell-based; settings: human
Source text: Please refer to FIG. 4C, various cell viabilities of the HEL299 cell lines can be obtained through the MTT assay while the compounds No. 1˜30 are used to treat HEL299 cell lines, wherein HEL299 cell lines are fibroblast.

RXF 393 = assay: NCI in vitro DTP human cell line screen, RXF 393; format: cell-based; settings: Renal Cancer, 1.00E−5 Molar
Description: as §1

OVCAR-3 = assay: NCI in vitro DTP human cell line screen, OVCAR-3; format: cell-based; settings: Ovarian Cancer, 1.00E−5 Molar
Description: as §1

HCT-15 = assay: NCI in vitro DTP human cell line screen, HCT-15; format: cell-based; settings: Colon Cancer, 1.00E−5 Molar
Description: as §1

HT29 = assay: NCI in vitro DTP human cell line screen, HT29; format: cell-based; settings: Colon Cancer, 1.00E−5 Molar
Description: as §1

UACC-257 = assay: NCI in vitro DTP human cell line screen, UACC-257; format: cell-based; settings: Melanoma, 1.00E−5 Molar
Description: as §1

U251 = assay: NCI in vitro DTP human cell line screen, U251; format: cell-based; settings: CNS Cancer, 1.00E−5 Molar
Description: as §1

SK-MEL-28 = assay: NCI in vitro DTP human cell line screen, SK-MEL-28; format: cell-based; settings: Melanoma, 1.00E−5 Molar
Description: as §1

RPMI-8226 = assay: NCI in vitro DTP human cell line screen, RPMI-8226; format: cell-based; settings: Leukemia, 1.00E−5 Molar
Description: as §1

BT-549 = assay: NCI in vitro DTP human cell line screen, BT-549; format: cell-based; settings: Breast Cancer, 1.00E−5 Molar
Description: as §1

NCI-H522 = assay: NCI in vitro DTP human cell line screen, NCI-H522; format: cell-based; settings: Non-Small Cell Lung Cancer, 1.00E−5 Molar
Description: as §1

MCF7 = assay: NCI in vitro DTP human cell line screen, MCF7; format: cell-based; settings: Breast Cancer, 1.00E−5 Molar
Description: as §1

T-47D = assay: NCI in vitro DTP human cell line screen, T-47D; format: cell-based; settings: Breast Cancer, 1.00E−5 Molar
Description: as §1

A3 cell lines = assay: MTT assay, A3 cell lines (lung cancer stem cell); format: cell-based
Source text: Please to FIG. 4B, various cell viabilities of the A3 cell lines can be obtained through the MTT assay and illustrated in FIG. 4B while the compounds No. 1˜30 are used to treat A3 cell lines, wherein A3 cell lines are lung cancer stem cell.

SK-MEL-5 = assay: NCI in vitro DTP human cell line screen, SK-MEL-5; format: cell-based; settings: Melanoma, 1.00E−5 Molar
Description: as §1

TK-10 = assay: NCI in vitro DTP human cell line screen, TK-10; format: cell-based; settings: Renal Cancer, 1.00E−5 Molar
Description: as §1

CAKI-1 = assay: NCI in vitro DTP human cell line screen, CAKI-1; format: cell-based; settings: Renal Cancer, 1.00E−5 Molar
Description: as §1

DU145 = assay: NCI in vitro DTP human cell line screen, DU145; format: cell-based; settings: Prostate Cancer, 1.00E−5 Molar
Description: as §1

MDA-MB-435 = assay: NCI in vitro DTP human cell line screen, MDA-MB-435; format: cell-based; settings: Melanoma, 1.00E−5 Molar
Description: as §1

NCI-H23 = assay: NCI in vitro DTP human cell line screen, NCI-H23; format: cell-based; settings: Non-Small Cell Lung Cancer, 1.00E−5 Molar
Description: as §1

OVCAR-4 = assay: NCI in vitro DTP human cell line screen, OVCAR-4; format: cell-based; settings: Ovarian Cancer, 1.00E−5 Molar
Description: as §1

HCC-2998 = assay: NCI in vitro DTP human cell line screen, HCC-2998; format: cell-based; settings: Colon Cancer, 1.00E−5 Molar
Description: as §1

K562 = assay: NCI in vitro DTP human cell line screen, K562; format: cell-based; settings: Leukemia, 1.00E−5 Molar
Description: as §1

NCI-H226 = assay: NCI in vitro DTP human cell line screen, NCI-H226; format: cell-based; settings: Non-Small Cell Lung Cancer, 1.00E−5 Molar
Description: as §1

NCI-H460 = assay: NCI in vitro DTP human cell line screen, NCI-H460; format: cell-based; settings: Non-Small Cell Lung Cancer, 1.00E−5 Molar
Description: as §1

IGROV1 = assay: NCI in vitro DTP human cell line screen, IGROV1; format: cell-based; settings: Ovarian Cancer, 1.00E−5 Molar
Description: as §1

A control cell lines = assay: MTT assay, A control cell lines (lung cancer cell); format: cell-based
Source text: Please refer to Table 1 and FIGS. 4A-4C. According to a MTT assay (Table 1), various cell viabilities of the A control cell lines can be obtained and illustrated in FIG. 4A while the compounds No. 2˜30 are used to treat A control cell lines, wherein A control cell lines are lung cancer cell.

UO-31 = assay: NCI in vitro DTP human cell line screen, UO-31; format: cell-based; settings: Renal Cancer, 1.00E−5 Molar
Description: as §1

COc1cccc(Sc2ccc3c(=O)c4ccccc4sc3c2Cl)c1 [No. 16, 4-Chloro-3-(3-methoxylphenylthio)-9H-thioxanthen-9-one]
Growth Percent (M14): 111.90%
Growth Percent (HCT-116): 101.88%
Growth Percent (SF-539): 100.06%
Growth Percent (SK-OV-3): 104.91%
Growth Percent (MALME-3M): 94.91%
Growth Percent (786-0): 107.97%
Growth Percent (NCI/ADR-RES): 102.83%
Growth Percent, Mean (60 cancer lines): 101.65%
Growth Percent (SR): 99.21%
Growth Percent (OVCAR-8): 94.29%
Growth Percent (SF-268): 104.10%
Growth Percent (HS 578-T): 103.73%
Growth Percent (COLO 205): 113.53%
Growth Percent (NCI-H322M): 118.28%
Growth Percent (SNB-75): 86.86%
Growth Percent (LOX IMVI): 93.53%
Growth Percent (SF-295): 108.18%
Growth Percent (ACHN): 103.08%
Growth Percent (MDA-MB-468): 104.49%
Growth Percent (EKVX): 96.56%
Growth Percent (MOLT-4): 111.47%
Growth Percent (OVCAR-5): 94.14%
Growth Percent (KM12): 114.13%
Growth Percent (PC-3): 98.58%
Growth Percent (SK-MEL-2): 97.07%
Growth Percent (HL-60(TB)): 115.43%
Growth Percent (SW-620): 106.14%
viability [1]: 90.6 ± 11.5%
Growth Percent (RXF 393): 112.67%
Growth Percent (OVCAR-3): 113.99%
Growth Percent (HCT-15): 94.87%
Growth Percent (HT29): 91.02%
Growth Percent (UACC-257): 89.21%
Growth Percent (U251): 93.76%
Growth Percent (SK-MEL-28): 109.16%
Growth Percent (RPMI-8226): 99.57%
Growth Percent (BT-549): 112.48%
Growth Percent (NCI-H522): 86.09%
Growth Percent (MCF7): 88.94%
Growth Percent (T-47D): 92.09%
cell viabilities of A3 cell lines (MTT assay) (A3 cell lines): 90.0 ± 1.24%
Growth Percent (SK-MEL-5): 96.73%
Growth Percent (TK-10): 95.23%
Growth Percent (CAKI-1): 101.23%
Growth Percent (DU145): 115.18%
Growth Percent (MDA-MB-435): 100.32%
Growth Percent (NCI-H23): 92.69%
Growth Percent (OVCAR-4): 99.88%
Growth Percent (HCC-2998): 103.45%
Growth Percent (K562): 97.79%
Growth Percent (NCI-H226): 95.11%
Growth Percent (NCI-H460): 108.81%
Growth Percent (IGROV1): 108.37%
cell viabilities of A control cell lines (MTT assay) (A control cell lines): 91.8 ± 3.07%
Growth Percent (UO-31): 98.31%
